# Test results taken from patent US6716853B2, “Cyclic N-substituted alpha-imino carboxylic acids for selective inhibition of collogenase” (Aventis Pharma Deutschland GmbH, priority 2002, dated 2004).
# Like-named read-outs stand apart in the source and are kept apart here.
# Key:
# Type in all cases: biochemical
# [1] = target: T1, human stromelysin (MMP-3) catalytic domain (Homo sapiens, UniProt P08254); test: Enzymatic activity of the catalytic domain of human stromelysin (MMP 3), fluorogenic substrate; details: Table 2; pH 7.5
# T1 construct: catalytic domain of human stromelysin (MMP 3); made in house
# T1 sequence (P08254 100-272 limits assumed): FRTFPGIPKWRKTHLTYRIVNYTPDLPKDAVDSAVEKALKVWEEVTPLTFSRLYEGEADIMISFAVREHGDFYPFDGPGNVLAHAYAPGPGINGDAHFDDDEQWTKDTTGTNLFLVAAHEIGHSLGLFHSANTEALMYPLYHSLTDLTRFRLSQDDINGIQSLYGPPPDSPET
# Procedure: (§1) Preparation and determination of the enzymatic activity of the catalytic domain of human stromelysin (MMP 3) and neutrophil collagenase (MMP8).
# (§2) The two enzymes—stromelysin (MMP-3) and neutrophil collagenase (MMP-8)—were prepared as described by Ye et al. (Biochemistry; 31 (1992) pages 11231-11235). To measure the enzymic activity or the enzyme inhibitory effect, 70 μl of buffer solution and 10 μl of enzyme solution are incubated at physiological pH with 10 μl of a 10% strength (v/v) aqueous dimethyl sulfoxide solution which optionally contains the enzyme inhibitor for 15 minutes. After addition of 10 μl of a 10% strength (v/v) aqueous dimethyl sulfoxide solution which contains 1 mmol/l of the substrate, the enzymic reaction is followed by fluorescence spectroscopy (328 nm (ex)/393 nm(em)).
# (§3) The enzymic activity is represented as increase in extinction/minute. The IC50 values listed in table 2 are measured as the inhibitor concentrations leading in each case to 50% inhibition of the enzyme.
# (§4) The buffer solution contains 0.05% Brij (Sigma, Deisenhofen, Germany) and 0.1 mol/l Tris/HCl, 0.1 mol/l NaCl, 0.01 mol/l CaCl2 and 0.1 mol/l piperazine-N,N′-bis[2-ethanesulfonic acid] (pH=7.5).
# (§5) The enzyme solution contains 5 μg/ml of one of the enzyme domains prepared as described by Ye et al. The substrate solution contains 1 mmol/l of the fluorogenic substrate (7-methoxycoumarin-4-yl)acetyl-Pro-Leu-Gly-Leu-3-(2,4-dinitrophenyl)-L-2,3-diaminopropionyl-Ala-Arg-NH2 (Bachem, Heidelberg, Germany).
# [2] = target: T2, human neutrophil collagenase (MMP-8) catalytic domain (Homo sapiens, UniProt P22894); test: Enzymatic activity of the catalytic domain of human neutrophil collagenase (MMP 8), fluorogenic substrate; details: Table 2; pH 7.5
# T2 construct: catalytic domain of human stromelysin (MMP 3) and neutrophil collagenase (MMP8); made in house
# T2 sequence (P22894 100-262 limits assumed): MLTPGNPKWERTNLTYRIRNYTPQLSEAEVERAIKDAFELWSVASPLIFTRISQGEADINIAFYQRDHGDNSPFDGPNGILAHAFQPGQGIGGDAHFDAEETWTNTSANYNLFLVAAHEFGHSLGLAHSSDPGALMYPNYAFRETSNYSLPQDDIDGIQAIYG
# Procedure: as §1, §2, §3, §4, §5
# [3] = target: T3, human collagenase 3 (MMP-13) catalytic domain (Homo sapiens, UniProt P45452); test: Enzymatic activity of the catalytic domain of human collagenase 3 (MMP-13), fluorogenic substrate
# T3 construct: catalytic domain of human collagenase 3 (MMP-13); purchased INVITEK, Berlin 30 100 803
# Procedure: Determination of the enzymatic activity of the catalytic domain of human collagenase 3 (MMP-13).
# Activation of the proenzyme:
# 2 parts by volume of proenzyme are incubated with 1 part by volume of APMA solution at 37° C. for 1.5 hours. The APMA solution is prepared from a 10 mmol/L
# p-aminophenylmercuric acetate solution in […] by dilution with 3 parts by volume of Tris/HCl buffer pH7.5 (see below). The pH is adjusted to between 7.0 and 7.5 by adding 1 mmol/L HCl. After activation of the enzyme it is diluted with the Tris/HCl buffer to a concentration of 1.67 μg/mL.
# To measure the enzymic activity, 10 μL of enzyme solution are incubated with 10 μL of a 3% strength (v/v) buffered dimethyl sulfoxide solution (reaction 1) for 15 minutes. To measure the enzyme inhibitory activity, 10 μL of enzyme solution are incubated with 10 μL of a 3% strength (v/v) buffered dimethyl sulfoxide solution which contains the enzyme inhibitor (reaction 2).
# The enzymic reaction both in reaction 1 and in reaction 2 is followed, after addition of 10 μL of a 3% strength (v/v) aqueous dimethyl sulfoxide solution which contains 0.75 mmol/L of the substrate, by fluorescence spectroscopy (328 nm (extinction)/393 nm(emission)).
# The enzymic activity is represented as increase in extinction/minute.
# The inhibitory effect is calculated as percentage inhibition by the following formula:
# % inhibition=100−[(increase in extinction/minute in reaction 2)/(increase in extinction/minute in reaction 1)×100].
# The IC50, i.e. the inhibitor concentration necessary for 50% inhibition of enzymic activity, is found by plotting a graph of the percentage inhibitions at various inhibitor concentrations.
# The buffer solution contains 0.05% Brij (Sigma, Deisenhofen, Germany) and 0.1 mol/L Tris/HCl, 0.1 mol/L NaCl, 0.01 mol/L CaCl2 (pH=7.5).
# The enzyme solution contains 1.67 μg/mL of the enzyme domain.
# The substrate solution contains 0.75 mmol/L of the fluorogenic substrate (7-methoxycoumarin-4-yl)acetyl-Pro-Leu-Gly-Leu-3-(2,4-dinitrophenyl)-L-2,3-diaminopropionyl-Ala-Arg-NH2 (Bachem, Heidelberg, Germany).
# [4] = Table 2, pH 7.5, read-out: MMP 13 IC50
# [5] = Table 3, comparative examples, determination as described above, read-out: MMP 13
IC50 [1] [nM],IC50 [2] [nM],"IC50 [3, 4] [nM]","IC50 [3, 5] [nM]",Compound
3000,2300,40,–,CCOC(=O)Nc1ccc(-c2ccc(S(=O)(=O)N3Cc4ccccc4C[C@@H]3C(=O)O)cc2)cc1 [Example 1]
3000,6000,30,–,"CC(C)OC(=O)Nc1ccc(-c2ccc(S(=O)(=O)N3Cc4ccccc4C[C@@H]3C(=O)O)cc2)cc1 [Example 2, 2-(4′-Isopropoxycarbonylaminobiphenyl-4-sulfonyl)-1,2,3,4-tetrahydroisocquinoline-3-(R)-carboxylic acid]"
> 10000,2000,70,–,CCCCCCOC(=O)Nc1ccc(-c2ccc(S(=O)(=O)N3Cc4ccccc4C[C@@H]3C(=O)O)cc2)cc1 [Example 3]
2000,3000,20,–,CC(C)COC(=O)Nc1ccc(-c2ccc(S(=O)(=O)N3Cc4ccccc4C[C@@H]3C(=O)O)cc2)cc1 [Example 4]
3000,4000,20,–,O=C(Nc1ccc(-c2ccc(S(=O)(=O)N3Cc4ccccc4C[C@@H]3C(=O)O)cc2)cc1)OCC1CC1 [Example 5]
–,4000,80,–,CC(C)OC(=O)Nc1ccc(-c2ccc(S(=O)(=O)N3Cc4ncn(C)c4C[C@@H]3C(=O)O)cc2)cc1 [Example 6]
> 10000,1000,60,–,Cn1cnc2c1C[C@H](C(=O)O)N(S(=O)(=O)c1ccc(-c3ccc(NC(=O)OCc4ccccc4)cc3)cc1)C2 [Example 7]
> 10000,5000,70,–,Cn1cnc2c1C[C@H](C(=O)O)N(S(=O)(=O)c1ccc(-c3ccc(NC(=O)OCC(C)(C)C)cc3)cc1)C2 [Example 8]
–,200,60,–,CC(C)COC(=O)Nc1ccc(-c2ccc(S(=O)(=O)N3Cc4ncn(C)c4C[C@@H]3C(=O)O)cc2)cc1 [Example 9]
> 10000,700,20,–,Cn1cnc2c1C[C@H](C(=O)O)N(S(=O)(=O)c1ccc(-c3ccc(NC(=O)OCC4CC4)cc3)cc1)C2 [Example 10]
–,–,–,50,"O=C(O)[C@H]1Cc2ccccc2CN1S(=O)(=O)c1ccc(-c2ccccc2)cc1 [Example 34, reference compound]"
–,–,–,30,"O=C(O)[C@H]1Cc2ccccc2CN1S(=O)(=O)c1ccc(-c2ccc(Cl)cc2)cc1 [Example 35, reference compound]"
–,–,–,2.9,"CN(C)c1ccc(-c2ccc(S(=O)(=O)N3Cc4ccccc4C[C@@H]3C(=O)O)cc2)cc1 [Example 39, reference compound]"
